The results in this text go back to patent publication US8530468B2 (Cancer Research Technology Limited, priority 2008, dated 2013).

Where two headings read alike, the source gives them in different places.

One experiment concerns the target T1, CHK1 (Homo sapiens, UniProt O14757).
T1 sequence (O14757 1-476): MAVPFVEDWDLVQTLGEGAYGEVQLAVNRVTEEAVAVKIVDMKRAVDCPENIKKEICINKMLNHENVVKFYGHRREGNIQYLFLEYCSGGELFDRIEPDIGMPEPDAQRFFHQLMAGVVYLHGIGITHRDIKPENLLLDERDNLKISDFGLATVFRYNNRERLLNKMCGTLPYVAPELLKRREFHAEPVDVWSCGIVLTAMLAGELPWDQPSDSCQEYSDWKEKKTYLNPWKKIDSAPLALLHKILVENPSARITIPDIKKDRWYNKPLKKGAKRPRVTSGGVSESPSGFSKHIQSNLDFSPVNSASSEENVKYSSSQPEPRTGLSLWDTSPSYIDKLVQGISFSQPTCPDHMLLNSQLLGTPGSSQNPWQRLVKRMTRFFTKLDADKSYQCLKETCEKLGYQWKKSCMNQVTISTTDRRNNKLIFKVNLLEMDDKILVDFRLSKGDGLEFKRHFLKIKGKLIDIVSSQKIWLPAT
Briefly: CHK1 kinase function inhibition (DELFIA assay, phosphorylation of CDC25C peptide). It is filed as biochemical. The conditions noted are these: CHK1 1 nM, ATP 30 μM, 30 minutes at room temperature.

The next experiment relates to HT29 cells. Briefly: Mitosis inhibition assay (MIA), checkpoint abrogation after etoposide. It is filed as cell-based. As to conditions: Homo sapiens, HT-29, etoposide 50 μM 1 hour, then compound with nocodazole 100 ng/mL, 21 hours, read-out: MIA IC50 (concentration required to allow 50% of cells to enter mitosis).
For experiment [1], the system named is HT29 colon carcinoma cells. As to the kind of experiment: Cytotoxicity assay (SRB). It is filed as cell-based. As to conditions: Homo sapiens, read-out: SRB IC50 (concentration required to inhibit growth by 50%).

In the case of `N#Cc1cnc(Nc2cc3c(cn2)ncn3CCN)cn1` [BB-019, 5-(1-(2-Aminoethyl)-1H-imidazo[4,5-c]pyridin-6-ylamino)pyrazine-2-carbonitrile], at CHK1, the IC50 was 1 to 10 µM.

Turning to `N#Cc1cnc(Nc2cc3cccc(NCCO)c3cn2)cn1` [AA-031, 5-(8-(2-Hydroxyethylamino)isoquinolin-3-ylamino)pyrazine-2-carbonitrile], the IC50 against CHK1 was at most 1 µM; in the experiment with HT29 cells, at most 10 µM; in experiment [1] (HT-29, 96 hours), at most 10 µM. Consider `N#Cc1ncc(Nc2cc3ccccc3cn2)nc1OC1CCCNC1` (centres unmarked) [AA-015], for which the IC50 in experiment [1] (HT-29, 96 h) was at most 10 µM. On CHK1, `c1nc2cnc(Nc3cncc(OCC4CCNCC4)n3)cc2[nH]1` [BB-013] showed an IC50 of 1 to 10 µM. Regarding `CC(=O)Nc1cccc2cc(Nc3cnc(C#N)cn3)ncc12` [AA-062, N-(3-(5-Cyanopyrazin-2-ylamino)isoquinolin-8-yl)acetamide], the IC50 on CHK1 was at most 1 µM. The molecule `CCOC(=O)COc1nc(Nc2cc3ccccc3cn2)cnc1C#N` [AA-068, Ethyl 2-(3-cyano-6-(isoquinolin-3-ylamino)pyrazin-2-yloxy)acetate] came in with an IC50 on CHK1 of 1 to 10 µM. On to `N#Cc1ncc(Nc2cc3ccccc3cn2)nc1OC[C@H]1CNCCO1` [AA-049], for which the IC50 against CHK1 was at most 1 µM; in the experiment on HT29 cells, at most 10 µM; in experiment [1] (HT-29, 96 hours), at most 10 µM. For the molecule `COCCNc1cccc2cc(Nc3cnc(C#N)c(O[C@@H]4CCNC4)n3)ncc12` [AA-037], the IC50 was at most 1 µM against CHK1; at most 10 µM in the experiment with HT29 cells; at most 10 µM in experiment [1] (HT-29, 96 hours). Take `CC(CN(C)C)Oc1nc(Nc2cc3cccc(Cl)c3cn2)cnc1C#N` (centres unmarked) [AA-010]: the IC50 was at most 10 µM in the experiment with HT29 cells and at most 10 µM in experiment [1] (HT-29, 96 h). Molecule `N#Cc1cnc(Nc2cc3c(cn2)ncn3[C@H]2CCCNC2)cn1` [BB-021, (S)-5-(1-(Piperidin-3-yl)-1H-imidazo[4,5-c]pyridin-6-ylamino)pyrazine-2-carbonitrile] displayed an IC50 at CHK1 of at most 1 µM. Consider `COCCC(=O)Nc1cccc2cc(Nc3cnc(C#N)cn3)ncc12` [AA-063, N-(3-(5-Cyanopyrazin-2-ylamino)isoquinolin-8-yl)-3-methoxypropanamide], for which the IC50 against CHK1 was 1 to 10 µM.

Take `N#Cc1cnc(Nc2cc3cccc(NCCCN4CCOCC4)c3cn2)cn1` [AA-027]: the IC50 is at most 1 µM against CHK1; at most 10 µM in the experiment with HT29 cells; at most 10 µM in experiment [1] (HT-29, 96 hours). Turning to `CC(CN(C)C)Oc1nc(Nc2cc3[nH]cnc3cn2)cnc1C#N` (centres unmarked) [BB-024, 5-(3H-Imidazo[4,5-c]pyridin-6-ylamino)-3-(1-(dimethylamino)propan-2-yloxy)pyrazine-2-carbonitrile], the IC50 at CHK1 is at most 1 µM.

Consider `COCCNc1cccc2cc(Nc3cnc(C#N)cn3)ncc12` [AA-036], for which the figures for the IC50 on CHK1 and with HT29 cells were at most 1 µM and at most 10 µM, respectively. Turning to `N#Cc1cnc(Nc2cc3c(Br)ccc(Cl)c3cn2)cn1` [AA-070, 5-(5-Bromo-8-chloroisoquinolin-3-ylamino)pyrazine-2-carbonitrile], on CHK1, the IC50 was in the range of 1 to 10 µM.

The molecule `CN1CCCC(COc2nc(Nc3cc4[nH]cnc4cn3)cnc2C#N)C1` (centres unmarked) [BB-026] had an IC50 against CHK1 of at most 1 µM. On to `Cc1cccc2cc(Nc3cnc(C#N)cn3)ncc12` [AA-024], for which, on CHK1, the IC50 is 1 to 10 µM.

For `COCCNC(=O)c1cccc2cc(Nc3cnc(C#N)c(OC(C)CN(C)C)n3)ncc12` (centres unmarked) [AA-066], the IC50 is 1 to 10 µM at CHK1 and at most 10 µM with HT29 cells.

In turn, `COc1nc(Nc2cc3ccccc3cn2)cnc1C#N` [AA-048] had an IC50 against CHK1 of at most 1 µM. As to `N#Cc1cnc(Nc2cc3c(cn2)ncn3[C@@H]2CCCNC2)cn1` [BB-023, (R)-5-(1-(Piperidin-3-yl)-1H-imidazo[4,5-c]pyridin-6-ylamino)pyrazine-2-carbonitrile], on CHK1, the IC50 was 1 to 10 µM.

In turn, `N#Cc1cnc(Nc2cc3[nH]c(-c4ccc(N5CCNCC5)cc4)nc3cn2)cn1` [BB-006] gave an IC50 against CHK1 of 1 to 10 µM. Still for that read-out and setting: under `N#Cc1cnc(Nc2cc3[nH]c(CCC4CCNCC4)nc3cn2)cn1` [BB-011] stands at most 1 µM. The same measure, in the same setting: under `N#Cc1ncc(Nc2cc3ccccc3cn2)nc1OCC(=O)O` [AA-069, 2-(3-Cyano-6-(isoquinolin-3-ylamino)pyrazin-2-yloxy)acetic acid] stands 1 to 10 µM. `N#Cc1ncc(Nc2cc3cccc(Cl)c3cn2)nc1OC1CCCNC1` (centres unmarked) [AA-007]: the IC50 in the experiment with HT29 cells is at most 10 µM; in experiment [1] (HT-29, 96 h), at most 10 µM. `N#Cc1ncc(Nc2cc3cccc(NCCO)c3cn2)nc1OCC1CCOC1` (centres unmarked) [AA-047]: the IC50 against CHK1 lay within 1 to 10 µM.

With `C[C@H](CN(C)C)Oc1nc(Nc2cc3cccc(Cl)c3cn2)cnc1C#N` [AA-023], the IC50 in the experiment on HT29 cells is at most 10 µM; in experiment [1] (HT-29, 96 h), at most 10 µM. As for `C[C@H](C[N+](C)(C)[O-])Oc1nc(Nc2cc3cccc(Cl)c3cn2)cnc1C#N` [AA-071, (R)-2-(6-(8-Chloroisoquinolin-3-ylamino)-3-cyanopyrazin-2-yloxy)-N,N-dimethylpropan-1-amine oxide], the IC50 against CHK1 was at most 1 µM; with HT29 cells it was at most 10 µM. On to `COc1nc(Nc2cc3cccc(NCCO)c3cn2)cnc1C#N` [AA-042], for which the IC50 against CHK1 is at most 1 µM. Consider `N#Cc1ncc(Nc2cc3ccccc3cn2)nc1OCC1CCNCC1` [AA-003], for which the IC50 in experiment [1] (HT-29, 96 h) is at most 10 µM. For `COc1nc(Nc2cc3cccc(NCCN4CCOCC4)c3cn2)cnc1C#N` [AA-030], the IC50 against CHK1 is at most 1 µM; in the experiment with HT29 cells, at most 10 µM. Regarding `COCCNc1cccc2cc(Nc3cnc(C#N)c(O[C@H](C)CN(C)C)n3)ncc12` [AA-039], the IC50 in the experiment on HT29 cells is at most 10 µM; in experiment [1] (HT-29, 96 hours) it was at most 10 µM. On CHK1, `Cn1cnc2cnc(Nc3cnc(C#N)c(OCC4CCNCC4)n3)cc21` displayed an IC50 of at most 1 µM. Still for that read-out and setting: under `N#Cc1ncc(Nc2cc3cccc(NCCO)c3cn2)nc1OCC1CC1` [AA-045] stands at most 1 µM; under `COc1cc(OC)c2cnc(Nc3cnc(C#N)cn3)cc2c1` [AA-011, 5-(6,8-Dimethoxyisoquinolin-3-ylamino)pyrazine-2-carbonitrile], 1 to 10 µM; under `COc1cccc2cc(Nc3cnc(C#N)cn3)ncc12` [AA-021, 5-(8-methoxyisoquinolin-3-ylamino)pyrazine-2-carbonitrile], 1 to 10 µM. For the molecule `CC(C)CCOc1nc(Nc2cc3cccc(NCCO)c3cn2)cnc1C#N` [AA-046], on CHK1, the IC50 was in the range of 1 to 10 µM. At CHK1, `CN1CCCC(COc2nc(Nc3cc4cccc(Cl)c4cn3)cnc2C#N)C1` (centres unmarked) [AA-009] showed an IC50 of at most 1 µM. `N#Cc1cnc(Nc2cc3cccc(Br)c3cn2)cn1` [AA-017, 5-(8-Bromoisoquinolin-3-ylamino)pyrazine-2-carbonitrile] registered an IC50 at CHK1 of 1 to 10 µM. Take `N#Cc1ncc(Nc2cc3cccc(Cl)c3cn2)nc1OCC1CCNCC1` [AA-006]: the IC50 in experiment [1] (HT-29, 96 h) is at most 10 µM. For `N#Cc1ncc(Nc2cc3cccc(NCCCN4CCOCC4)c3cn2)nc1OCC1CC1` [AA-028], the IC50 on CHK1 was at most 1 µM. Turning to `N#Cc1ncc(Nc2cc3[nH]cnc3cn2)nc1O[C@@H]1CCNC1` [BB-027], the IC50 at CHK1 is at most 1 µM.

As for `COCCCNc1cccc2cc(Nc3cnc(C#N)cn3)ncc12` [AA-035], the results for the IC50 on CHK1 and in the experiment with HT29 cells were at most 1 µM and at most 10 µM, respectively. Regarding `N#Cc1cnc(Nc2cc3cccc(-c4cc[nH]n4)c3cn2)cn1` [AA-019, 5-(8-(1H-pyrazol-3-yl)isoquinolin-3-ylamino)pyrazine-2-carbonitrile], the IC50 against CHK1 fell in the range of 1 to 10 µM. In turn, `N#Cc1cnc(Nc2cc3[nH]c(C4CC4)nc3cn2)cn1` [BB-001, 5-(2-Cyclopropyl-1H-imidazo[4,5-c]pyridin-6-ylamino)pyrazine-2-carbonitrile] returned an IC50 against CHK1 of 1 to 10 µM. The molecule `N#Cc1cnc(Nc2cc3cc(Cl)ccc3cn2)cn1` [AA-018, 5-(6-Chloroisoquinolin-3-ylamino)pyrazine-2-carbonitrile] showed an IC50 against CHK1 of 1 to 10 µM. As to `CN1CCCC(Oc2nc(Nc3cc4[nH]cnc4cn3)cnc2C#N)C1` (centres unmarked) [BB-025], the IC50 against CHK1 was at most 1 µM. At CHK1, `CC(=O)Nc1cccc2cc(Nc3cnc(C#N)c(O[C@H](C)CN(C)C)n3)ncc12` [AA-064] yielded an IC50 of at most 1 µM. With `Clc1cccc2cc(Nc3cncc(OCC4CCNCC4)n3)ncc12` [AA-005], at CHK1, the IC50 was 1 to 10 µM. As for `N#Cc1ncc(Nc2cc3cccc(F)c3cn2)nc1O[C@@H]1CCNC1` [AA-072], the IC50 at CHK1 was at most 1 µM; in the experiment with HT29 cells it was at most 10 µM.

Turning to `C[C@H](CN(C)C)Oc1nc(Nc2cc3ccccc3cn2)cnc1C#N` [AA-022], the IC50 with HT29 cells was at most 10 µM; in experiment [1] (HT-29, 96 h), at most 10 µM. In turn, `N#Cc1cnc(Nc2cc3c(cn2)ncn3C2CCNCC2)cn1` [BB-022, 5-(1-(Piperidin-4-yl)-1H-imidazo[4,5-c]pyridin-6-ylamino)pyrazine-2-carbonitrile] returned an IC50 against CHK1 of 1 to 10 µM. `N#Cc1cnc(Nc2cc3c(cn2)ncn3CC2CCCNC2)cn1` (centres unmarked) [BB-020, 5-(1-(Piperidin-3-ylmethyl)-1H-imidazo[4,5-c]pyridin-6-ylamino)pyrazine-2-carbonitrile] displayed an IC50 on CHK1 of 1 to 10 µM. `N#Cc1ncc(Nc2cc3cccc(NCCN4CCOCC4)c3cn2)nc1OCC1CCOC1` (centres unmarked) [AA-029]: the IC50 was at most 1 µM against CHK1 and at most 10 µM in the experiment on HT29 cells. For the molecule `N#Cc1cnc(Nc2cc3cc[nH]c3cn2)cn1` [CC-001, 5-(1H-Pyrrolo[2,3-c]pyridin-5-ylamino)pyrazine-2-carbonitrile], the IC50 against CHK1 lay in the range of 1 to 10 µM.
